According to PubChem BioAssay AID1996:
≈ marks a conversion by molar mass, not a printed value.

Details: buffer; pH 7.4; 200.0 µM

Compound | solubility kinetic [µg/mL]
O=C(NCc1ccco1)c1ccc([N+](=O)[O-])cc1Cl | 40 (≈ 143 µM)
CC(C)c1ccc(N=C2N=C(N)c3ccccc32)cc1 | 15.4 (≈ 58.5 µM)
CCOC(=O)c1c(C)[nH]c(C(=O)COc2ccc3ccc(=O)oc3c2)c1C | 9.2 (≈ 24.9 µM)
O=C(COc1ccccc1[N+](=O)[O-])Nc1cc(Cl)ccc1C(=O)O | > 52.6
Cc1cc[n+](CCc2ccccc2)cc1C.[Br-] | > 43.8
CC(=O)N/C(=N/c1nc(C)cc(C)n1)Nc1cc(C)cc(C)c1 | 3.8 (≈ 12.2 µM)
COn1c(-c2ccc(C)cc2)nc2ncccc21 | > 35.9
Cn1cnc2c1c(=O)n(Cc1cccc(Cl)c1)c(=O)n2C | > 45.7
Cc1ccsc1/C=N/Nc1ncnc2nc[nH]c12 | > 38.7
COc1ccc(/C=C/C(=O)N(C)c2ccccc2C(=O)O)cc1 | 45.2 (≈ 145 µM)
CCC(Cc1ccccc1)NC(=O)/C=C/c1ccco1 (centres undefined) | 23.7 (≈ 88 µM)
COc1cccc(CC(CC(=O)O)C(=O)Nc2cc(C)ccc2C)c1 (centres undefined) | 35.7 (≈ 105 µM)
Cc1cc(C(=O)O)c(C)n1C1CC1 | > 26.9
O=C(/C=C/c1ccc(Cl)cc1)N1CCOCC1 | 33.3 (≈ 132 µM)
Cc1cccc(N2CN(S(=O)(=O)c3cccc([N+](=O)[O-])c3)c3nc4ccccc4nc32)c1 | 0.7 (≈ 1.56 µM)
CC(C)(C)NC(=O)N1CCN(c2ncccc2C(F)(F)F)CC1 | > 49.6
O=C(O)CCCC(=O)NCc1c(Cl)cccc1Sc1ccc(Cl)cc1 | > 59.7
O=C1CCCc2ccccc2N1Cc1ccccc1 | 37.5 (≈ 149 µM)
O=[N+]([O-])c1ccccc1S(=O)(=O)N1CCN(c2ccccc2)CC1 | 7.2 (≈ 20.7 µM)
O=C(NCc1ccco1)c1ccc2c(c1)OCCO2 | 37.6 (≈ 145 µM)
COc1cccc(NC(=O)C(c2ccccc2)N2CCNC(=O)C2)c1 (centres undefined) | > 50.9
Cc1cnc(C(=O)Nc2ccc(N3CCCCC3)cc2)cn1 | 4.2 (≈ 14.2 µM)
N#Cc1c(-c2ccco2)ccn(Cc2cccc(F)c2)c1=O | 3.2 (≈ 10.9 µM)
O=C(c1ccccc1)c1ncc[nH]1 | > 25.8

Compound | solubility kinetic [µg/mL]
CCOC(=O)c1sc2ncnc(Nc3cccc(C(=O)O)c3)c2c1C | > 53.6
CC(=O)Nc1ccc2c(c1)nc(C)n2Cc1ccccc1 | > 41.9
COc1cccc(C(=O)N2CCn3c2nc2ccccc23)c1 | > 44
NC1=NC(=O)C(Cc2ccc(Br)cc2)S1 (centres undefined) | 36.5 (≈ 128 µM)
CCn1c(=O)c2sccc2n(Cc2ccc(C)cc2)c1=O | 0.4 (≈ 1.33 µM)
COc1cc(NC(=O)CCCN2C(=O)NC(C)(C)C2=O)cc(OC)c1 | 49.6 (≈ 142 µM)
COCC(=O)N(Cc1cc2ccc(C)cc2[nH]c1=O)c1ccc(C)cc1C | 4.9 (≈ 13.4 µM)
CC1CCc2c(sc(NC(=O)c3cccs3)c2C(=O)O)C1 (centres undefined) | 47.4 (≈ 147 µM)
COC(=O)c1ccccc1NC(=O)CN1CCc2ccccc2C1 | 10.7 (≈ 33 µM)
Cc1cc(=O)[nH]c(SCCc2ccccc2)n1 | 26.5 (≈ 108 µM)
CC(=O)NCCc1nc2cc(NC(=O)Nc3ccccc3)ccc2n1C | > 52.7
O=C(NCC1CCCCC1)c1ccc([N+](=O)[O-])cc1 | 5.1 (≈ 19.4 µM)
CC(=O)N1CCN(C(=O)COC(=O)c2ccc(S(C)(=O)=O)cc2)CC1 | > 55.3
COc1ccc(N2CC(C(=O)NC3CCCCC3)CC2=O)cc1 (centres undefined) | 25.3 (≈ 80 µM)
COc1ccc(NC(=O)c2cc3ccccc3oc2=O)c(OC)c1 | < 0.7
CC(C)CCN1CCN(Cc2ccoc2)CC1CCO (centres undefined) | 29.6 (≈ 106 µM)
O=C(O)c1cccnc1 | > 18.5
Cc1cc(C)cc(C(=O)N(C)C2CCCN(Cc3ccccc3F)C2)c1 (centres undefined) | > 53.2
O=C(CCC(=O)N1CCOCC1)c1ccc(F)cc1 | > 39.8
Cc1nc(SCC(=O)Nc2cccc(S(=O)(=O)N3CCOCC3)c2)nc(C)c1C | 29.5 (≈ 67.6 µM)
Cc1cccc(NC(=O)c2ccc3c(c2)OCCO3)c1C | 22.1 (≈ 78 µM)
COc1ccc(NC(=O)C2CCCN(c3nccc(C)n3)C2)cc1 (centres undefined) | 3.8 (≈ 11.6 µM)
NS(=O)(=O)c1ccc(CCNC(=O)C2CCCO2)cc1 (centres undefined) | > 44.8
Cc1cccc(C(=O)OCC(=O)NCC2COc3ccccc3O2)c1 (centres undefined) | 5.9 (≈ 17.3 µM)

Compound | solubility kinetic [µg/mL]
CN(C)c1ccc(CNCC2CCCO2)cc1.Cl (centres undefined) | > 40.6
COC(=O)c1cnc(Nc2cc(C)ccc2OC)c2ccccc12 | 0.7 (≈ 2.17 µM)
Cc1ccc(NC(=O)C2CCN(C(=O)c3cccs3)CC2)c(C)c1 | 36.6 (≈ 107 µM)
CC(C)OP(=O)(c1ccc(N(C)C)cc1)C(O)c1ccc(N(C)C)cc1 (centres undefined) | > 56.5
Cc1nc(SCC(=O)Nc2ccccc2Cl)c2c(C)c(C)sc2n1 | 3.9 (≈ 10.3 µM)
CC(OC(=O)c1ccncc1)C(=O)Nc1cccc([N+](=O)[O-])c1 (centres undefined) | > 47.3
Cc1oc2ccccc2c1CC(=O)NCCCN(C)C | > 41.2
Cc1ccccc1/C=C\c1nc2ccccc2c(=O)[nH]1 | 1.2 (≈ 4.57 µM)
COc1ccc(C)cc1S(=O)(=O)n1cnc2ccccc21 | 6.8 (≈ 22.5 µM)
Brc1cccc(-c2cnco2)c1 | 4 (≈ 17.9 µM)
Cn1c(N)c(C(=O)COC(=O)c2cccc(S(=O)(=O)N3CCOCC3)c2)c(=O)n(C)c1=O | 20 (≈ 42.9 µM)
CN1CCC(N(C)C(=O)c2cc(S(=O)(=O)N3CCOCC3)ccc2Cl)CC1.Cl | > 67.9
COc1cccc(OC)c1OC(=O)C1CC(=O)N(c2ccc3c(c2)OCCO3)C1 (centres undefined) | > 59.9
CCCCn1c(NC(=O)c2ccco2)c(S(=O)(=O)c2ccc(C)cc2)c2nc3ccccc3nc21 | 20.2 (≈ 41.3 µM)
Cc1nc([N+](=O)[O-])cn1CC(O)c1ccc(Cl)cc1 (centres undefined) | > 42.3
O=c1[nH]c(-c2ccccc2)cnc1-c1ccccc1 | 0.4 (≈ 1.61 µM)
O=C(NCc1ccco1)c1ccc(COc2ccccc2[N+](=O)[O-])o1 | > 51.3
C[N+]1(C)C2CCC1CC(OC(=O)c1ccccc1)C2.[Br-] (centres undefined) | > 51
O=c1cc(N2CCCC2)c2ccccc2o1 | > 32.3
CCOC(=O)C1CCN(C/C=C/c2ccccc2)CC1 | 27.2 (≈ 99.5 µM)
CCOC(=O)c1cc(C)n(-c2ccccc2)c1C | 3 (≈ 12.3 µM)
O=C(NCCc1ccccc1Cl)C1CC(=O)N(C2CCCCC2)C1 (centres undefined) | > 52.3
Cc1nc(SCc2ccccc2F)c2oc3ccccc3c2n1 | < 0.3
COc1ccc(CNc2ncnc3ccccc23)cc1 | > 39.8

Compound | solubility kinetic [µg/mL]
CCCNC(=S)Nc1ccc(F)cc1F | > 34.5
CC(=O)c1ccc(NC(=O)CSc2nccn2C)cc1 | > 43.4
CC(=O)N(Cc1ccccc1)c1nc(-c2ccccc2)cs1 | < 0.3
O=C(/C=C/c1cccc(F)c1)Nc1cc(S(=O)(=O)N2CCOCC2)ccc1Cl | 6.3 (≈ 14.8 µM)
C/C(=N\N1CCN(C)CC1)c1ccc(OC(F)F)cc1 | > 42.5
CC(NC(=O)COC(=O)CN1C(=O)C2CCCCC2C1=O)c1ccccc1 (centres undefined) | > 55.9
CCCCS(=O)(=O)N1CCCC(C(=O)Oc2ccc(Cl)cc2)C1 (centres undefined) | < 0.8
CC(COc1ccccc1)N(CCCl)Cc1ccccc1.Cl (centres undefined) | 45.8
COc1ccccc1NC(=O)CC(=O)c1ccccc1 | > 40.4
Cc1ccc(C(C)C)c(OCCCCCN2CCOCC2)c1 | 12.8 (≈ 41.9 µM)
CC1=C(C(=O)OC(C)C)C(c2ccc(O)cc2)NC(=O)N1 (centres undefined) | > 43.5
Cc1ccc(C(=O)NCCC(=O)N2CCOCC2)cc1 | > 41.5
CCOc1ccc(/C=N/N2C(C)CCCC2C)cc1OC (centres undefined) | > 43.6
O=C(CSC1=Nc2ccccc2C2CC=NN12)NCc1ccco1 (centres undefined) | > 51.1
CC1CC(=O)N(c2ccc(C(C)C)cc2)C(=O)C1 | 35 (≈ 143 µM)
CC1Cc2ccccc2N1C(=O)c1ccc2c(c1)OCO2 (centres undefined) | > 42.2
Br.CCCCCCCCCCn1ccc(=N)cc1 | > 47.3
O=[N+]([O-])c1cccc(-c2cc3ccccc3[nH]2)c1 | < 0.3
Cc1ccc(C(=O)Nc2ccc3c(c2)OCCO3)cc1 | 40.4 (≈ 150 µM)
O=C(Cc1ccc(Br)cc1)Nc1nc2ccccc2[nH]1 | 2.4 (≈ 7.27 µM)
O=C(Oc1coc(CSc2ncccn2)cc1=O)c1ccco1 | 46.5 (≈ 141 µM)
CC1CN(C(=O)c2cc3cc([N+](=O)[O-])ccc3oc2=O)CC(C)O1 (centres undefined) | 46.1 (≈ 139 µM)
CCN(c1cccc2ccccc12)S(=O)(=O)c1cccs1 | 12.5 (≈ 39.4 µM)
CCOc1ccc(Nc2nc(N)c([N+](=O)[O-])c(N3CCOCC3)n2)cc1 | 2.4 (≈ 6.66 µM)

Compound | solubility kinetic [µg/mL]
NC(=O)c1ccc[n+]([C@H]2O[C@@H](COP(=O)([O-])OP(=O)(O)OC[C@H]3O[C@@H](n4cnc5c(N)ncnc54)[C@H](O)[C@@H]3O)[C@H](O)[C@@H]2O)c1 | > 99.5
Cn1c(/C=C/c2ccc(Cl)cc2)c([N+](=O)[O-])c(=O)n(C)c1=O | 5 (≈ 15.5 µM)
Cc1ccc(NS(=O)(=O)N2CCOCC2)c(C)c1 | > 40.6
Cc1cc(C(F)(F)F)nc(SCCN2CCOCC2)c1C#N | 43.3 (≈ 131 µM)
CC(O)CNCc1ccccc1C(F)(F)F.Cl (centres undefined) | > 40.5
COc1ccc(CCNC(=O)c2ccc3c(c2)OCO3)cc1 | 2.5 (≈ 8.35 µM)
O=C1c2ccccc2C(=O)N1c1cccc2ccccc12 | 13.7 (≈ 50.1 µM)
Cc1ccc2cccc(OCCCOc3ccccc3CO)c2n1 | 38.1 (≈ 118 µM)
Cc1ccc(CN(C)C(=O)c2ccccc2Sc2ccccc2C#N)cc1 | 14.7 (≈ 39.5 µM)
O=C(O)C1(c2ccccc2)CCC(Nc2ccccc2)C1 (centres undefined) | 39.7 (≈ 141 µM)
CC(C)n1c(COc2ccccc2)nc2ccccc21 | 24.1 (≈ 90.5 µM)
O=C(Nc1nccs1)c1ccc(-c2ccc(F)cc2)o1 | 1.5 (≈ 5.2 µM)
CN(C(=S)NC(=O)c1ccc(Cl)cc1)C1CCCCC1 | 6.4 (≈ 20.6 µM)
CCOC(=O)Cc1csc(NC(=O)Nc2ccc(OC(F)(F)F)cc2)n1 | 0.3 (≈ 0.771 µM)
O=C(Nc1ccsc1C(=O)N1CCCC1)c1ccccc1 | < 0.3
Cc1onc(-c2ccccc2Cl)c1C(=O)N1CCCC1 | > 43.6
Cc1csc(=O)n1CC(=O)Nc1ccc(Cl)c(Cl)c1 | 9.7 (≈ 30.6 µM)
COc1ccc(C(=O)NC(=S)SCC(=O)O)cc1 | > 42.8
CCOc1ccc2[nH]c3c(c2c1)CNCC3 | 25.9 (≈ 120 µM)
O=C(NCCCO)C(=O)c1c(-c2ccccc2)cc2ccccn12 | > 48.4
CCN1CCN(c2nc(-c3ccccc3)c3ccccc3n2)CC1 | 46.1 (≈ 145 µM)
Cc1cnc(C(=O)OCc2ccc(Br)cc2)cn1 | 19 (≈ 61.9 µM)
Cc1cc2ccccn2c1C(=O)c1ccc(F)cc1 | 0.9 (≈ 3.55 µM)
